From patent US8722714B2, “Oxazolidine derivatives as NMDA antagonists” (The Honk Kong University of Science and Technology, priority 2008, dated 2014)

What was measured:
[1] = system: rat primary cortical neurons; test: Immunocytochemical analysis of neurons after NMDA insult; type: cell-based; conditions: compound 10 μg/ml; beta-tubulin type III and DAPI stain
Experimental: Primary cortical and hippocampal neurons were prepared from embryonic day 18 (E18) Sprague-Dawley rats. Neurons were plated on 35-mm dishes (NUNC) at a density of 1×10^6 cells per plate using Neurobasal medium (Invitrogen) supplemented with 2% B27 (Invitrogen). Neurons at 11-12 days in vitro (DIV) were subjected to treatment with the test compounds. Neurons were pretreated with the test compound for 2 hours prior to NMDA treatment. 0.1 μM (+)-MK-801 Hydrogen Maleate (Sigma) was added as a positive control. Briefly, the neurons were rinsed with Locke's solution (5 mM potassium chloride, 128 mM sodium chloride, 2.7 mM calcium chloride, 1 mM di-sodium hydrogen orthophosphate, 5 mM HEPES and 10 mM glucose in Milli-Q water) without Mg^2+, and incubated with addition of glycine (10 μM) for 15 minutes. After the incubation, the neurons were co-treated with the test compound (dissolved in Locke's plus glycine solution) and NMDA (20 μM; Sigma) for 20 minutes. Neurons were rinsed with Locke's plus Mg^2+ and replaced with fresh growth medium. […] Neurons were then analyzed by a fluorescence microscope using a 40× objective (DMRA; Leica). […]
LC-02 (10 μg/mL) protects embryonic rat primary cortical neurons against NMDA excitotoxicity. Neurites were immunostained with beta-tubulin type III antibody and detected with FITC-conjugated antibody. […]

mice = test: Forced Swim Test (FST); type: in vivo; conditions: 100 mg/kg p.o., 7 times, last 4 min of 6-min swim
Description: Outbred male I.C.R. mice of ˜3-4 weeks old weighing 20-22 g were used. The mice had free access to food (rodent chow #2053, 5g/mouse/day) and water. The cage floors were covered with wood shavings and the mice were handled once per week while the cages were cleaned. […] Number of mice per group was ˜10-15. To facilitate adaptation to novel surroundings, mice were transported to the testing area from the core animal facility at least one week prior to testing. All experimental sessions were conducted between 0900 and 1200 hours. Briefly, mice were put into a pyrex cylinder of 30 cm in height and 11.5 cm in diameter with water (10 cm) to a level that they would not be able to touch the bottom. Mice were put into the cylinder for twice, first day 15 min and second day 6 min. The duration of immobility (within the last 4 min in the 6-min time frame) of mice in FST were recorded using Etho-Vision® XT Mobility (Noldus software). The parameters to score the behavior of animals in the FST were fine-tuned by visual inspection. […]
The Forced Swim Test (FST) is a popular animal model for assessing depression. […] The time that the test animal spends in an immobile state in the second trial is measured (immobility time). […]
The task was then performed twice and the duration of time the mice spent in an immobile state during the second trial was measured. […]

| SMILES | protection against NMDA excitotoxicity and apoptosis (immunostaining) [1] | duration of immobility (immobility time) (mice) |
| --- | --- | --- |
| CC[C@H]1N[C@@H](CC(C)C)C(CC)(CC)O1 [LC-02] | protected the cells from excitotoxicity and the resulting apoptosis at a level similar to control cells |  |
| CCCC1(CCC)O[C@@H](CC)N[C@H]1CC(C)C [LC-06] |  | Reduces the Duration of Immobility |
